{
  "source": "patent US8148391B2",
  "about": "(Cephalon, Inc., priority 2006, dated 2012)",
  "key": {"[1]": {"molecular_target": "T1, baculovirus-expressed ALK (Homo sapiens, UniProt Q9UM73)", "T1 construct": "host or cells: baculovirus expression system", "T1 sequence (Q9UM73 19-1620)": "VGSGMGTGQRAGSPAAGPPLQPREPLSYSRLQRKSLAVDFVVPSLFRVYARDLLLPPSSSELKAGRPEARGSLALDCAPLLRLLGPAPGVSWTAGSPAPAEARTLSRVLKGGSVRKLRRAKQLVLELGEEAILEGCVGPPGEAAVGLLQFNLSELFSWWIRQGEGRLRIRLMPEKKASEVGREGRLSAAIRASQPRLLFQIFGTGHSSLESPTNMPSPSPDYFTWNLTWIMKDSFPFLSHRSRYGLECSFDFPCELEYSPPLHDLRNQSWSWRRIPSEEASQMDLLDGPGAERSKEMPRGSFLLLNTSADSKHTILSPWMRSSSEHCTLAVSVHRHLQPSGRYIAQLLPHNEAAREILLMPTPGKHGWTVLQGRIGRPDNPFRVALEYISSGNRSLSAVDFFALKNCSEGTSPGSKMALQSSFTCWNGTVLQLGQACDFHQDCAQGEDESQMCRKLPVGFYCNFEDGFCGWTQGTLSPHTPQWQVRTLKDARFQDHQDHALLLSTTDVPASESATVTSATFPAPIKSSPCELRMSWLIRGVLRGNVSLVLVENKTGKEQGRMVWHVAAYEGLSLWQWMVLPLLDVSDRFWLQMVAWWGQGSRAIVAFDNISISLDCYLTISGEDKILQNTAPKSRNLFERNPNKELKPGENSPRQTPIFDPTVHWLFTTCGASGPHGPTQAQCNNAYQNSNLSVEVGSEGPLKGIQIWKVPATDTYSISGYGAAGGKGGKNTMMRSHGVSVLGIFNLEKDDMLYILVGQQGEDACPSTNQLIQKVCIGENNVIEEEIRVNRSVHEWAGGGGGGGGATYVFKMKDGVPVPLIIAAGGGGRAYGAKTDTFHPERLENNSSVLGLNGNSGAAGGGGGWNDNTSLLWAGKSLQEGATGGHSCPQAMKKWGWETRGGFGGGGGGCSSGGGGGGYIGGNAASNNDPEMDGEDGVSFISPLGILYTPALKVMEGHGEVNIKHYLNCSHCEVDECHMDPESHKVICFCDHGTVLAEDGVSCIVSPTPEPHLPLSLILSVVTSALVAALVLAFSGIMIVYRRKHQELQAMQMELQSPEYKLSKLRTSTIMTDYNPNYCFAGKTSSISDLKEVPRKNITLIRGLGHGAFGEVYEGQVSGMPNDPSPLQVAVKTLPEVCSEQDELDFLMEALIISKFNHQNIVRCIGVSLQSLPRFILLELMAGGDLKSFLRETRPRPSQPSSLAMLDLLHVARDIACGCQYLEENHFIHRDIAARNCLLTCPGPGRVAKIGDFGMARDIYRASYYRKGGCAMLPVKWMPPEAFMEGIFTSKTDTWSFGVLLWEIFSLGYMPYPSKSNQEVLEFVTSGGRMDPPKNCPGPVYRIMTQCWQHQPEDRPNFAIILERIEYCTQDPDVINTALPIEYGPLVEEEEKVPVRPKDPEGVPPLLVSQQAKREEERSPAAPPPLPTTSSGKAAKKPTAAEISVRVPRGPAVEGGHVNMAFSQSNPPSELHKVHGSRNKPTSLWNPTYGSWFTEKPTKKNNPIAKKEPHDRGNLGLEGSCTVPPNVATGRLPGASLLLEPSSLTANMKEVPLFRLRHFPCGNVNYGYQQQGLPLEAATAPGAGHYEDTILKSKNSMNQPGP", "assay": "ALK Kinase Assay (ELISA-type, time-resolved fluorescence)", "assay_type": "biochemical", "outline": "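Wells were coated with phospholipase C-γ at 10 μg/mL in Tris-buffered saline. Adding 30 ng/ml enzyme started the reaction, which ran at 37° C for 15 minutes before Eu-N1 PT66 antibody detection. Percent inhibition versus log10 concentration gave IC50 by variable-slope fit.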"}, "[2]": {"molecular_target": "T2, c-Met (cytoplasmic domain) (Homo sapiens, UniProt P08581)", "T2 construct": "10 ng/mL c-Met (cytoplasmic domain, Invitrogen Corporation #PV3143); purchased Invitrogen Corporation PV3143", "T2 sequence (P08581 956-1390 limits assumed)": "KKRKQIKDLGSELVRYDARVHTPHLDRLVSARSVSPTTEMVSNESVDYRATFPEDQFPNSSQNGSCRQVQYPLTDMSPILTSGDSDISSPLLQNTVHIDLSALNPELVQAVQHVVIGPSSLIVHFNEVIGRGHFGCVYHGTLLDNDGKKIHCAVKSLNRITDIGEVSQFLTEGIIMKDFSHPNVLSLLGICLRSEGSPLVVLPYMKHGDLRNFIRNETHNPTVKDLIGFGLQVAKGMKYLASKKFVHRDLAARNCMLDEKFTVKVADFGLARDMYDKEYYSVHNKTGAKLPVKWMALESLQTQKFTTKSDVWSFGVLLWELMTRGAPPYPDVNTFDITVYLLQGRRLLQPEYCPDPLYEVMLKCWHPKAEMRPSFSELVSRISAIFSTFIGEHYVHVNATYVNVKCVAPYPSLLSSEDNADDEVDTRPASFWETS", "assay": "c-Met Kinase Assay (same methods as for ALK, with modifications)", "assay_type": "biochemical", "outline": "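Steps: coat wells with PLC-γ (10 μg/mL, Tris-buffered saline); add 10 ng/mL c-Met cytoplasmic domain to initiate; incubate 15 min, 37° C; detect phosphoproduct via Eu-N1 PT66 antibody.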"}, "[3]": {"conditions": "1 μM ATP (Km level), read-out: ALK Activity (ALK Kinase Inhibition, IC50)"}, "[4]": {"conditions": "1 μM ATP (Km level), read-out: cMet Activity (c-Met Kinase Inhibition, IC50)"}, "[5]": {"conditions": "1 μM ATP (Km level), 30 ng/ml ALK, 37° C., 15 minutes, read-out: ALK Activity (ALK kinase inhibition, IC50 class)"}, "[6]": {"conditions": "1 μM ATP (Km level), 10 ng/mL c-Met, read-out: cMet Activity (c-Met kinase inhibition, IC50 class)"}, "[7]": {"conditions": "ALK kinase inhibition, 1 μM ATP, read-out: ALK Activity"}, "[8]": {"conditions": "c-Met kinase inhibition, 1 μM ATP, read-out: cMet Activity"}, "[9]": {"conditions": "ALK kinase inhibition, 1 μM ATP (Km level), read-out: ALK Activity"}, "[10]": {"conditions": "c-Met kinase inhibition, 1 μM ATP (Km level), read-out: cMet Activity"}},
  "note": "Like-named read-outs stand apart in the source and are kept apart here.",
  "data": [
    {"molecule": "COc1ccc(Nc2nc(Nc3ccc4c(c3)CCN(CC3COCCO3)CC4)ncc2Cl)c(-n2cccn2)c1", "note": "(stereo not shown) [Example 642, 5-Chloro-N*2*-(3-[1,4]dioxan-2-ylmethyl-2,3,4,5-tetrahydro-1H-benzo[d]azepin-7-yl)-N*4*-(4-methoxy-2-pyrazol-1-yl-phenyl)-pyrimidine-2,4-diamine]", "values": [
      {"measurement": "IC50", "setting": "[1]; [3]", "value": "< 100", "unit": "nM"},
      {"measurement": "IC50", "setting": "[2]; [4]", "value": "100 to 1000", "unit": "nM"}
    ]},
    {"molecule": "COc1ccc2c(c1Nc1ncc(Cl)c(Nc3ccccc3S(=O)(=O)N(C)C)n1)CCC(NCC(F)F)CC2", "note": "(stereo not shown) [Example 1077, 2-{5-Chloro-2-[7-(2,2-difluoro-ethylamino)-2-methoxy-6,7,8,9-tetrahydro-5H-benzocyclohepten-1-ylamino]-pyrimidin-4-ylamino}-N,N-dimethyl-benzenesulfonamide]", "values": [
      {"measurement": "IC50", "setting": "[1]; [5]", "value": "100 to 1000", "unit": "nM"},
      {"measurement": "IC50", "setting": "[2]; [6]", "value": "> 10000", "unit": "nM"}
    ]},
    {"molecule": "CNC(=O)c1ncccc1Nc1nc(Nc2ccc3c(c2)CC(=O)N(C)CC3)ncc1Cl", "note": "[Example 1820, 3-[5-Chloro-2-(3-methyl-4-oxo-2,3,4,5-tetrahydro-1H-benzo[d]azepin-7-ylamino)-pyrimidin-4-ylamino]-pyridine-2-carboxylic acid methylamide]", "values": [
      {"measurement": "IC50", "setting": "[1]; [7]", "value": "< 100", "unit": "nM"},
      {"measurement": "IC50", "setting": "[2]; [8]", "value": "1000 to 10000", "unit": "nM"}
    ]},
    {"molecule": "CNC(=O)c1ccccc1Nc1nc(Nc2cc3c(cc2OC)CCOC(=O)N3C)ncc1Br", "note": "[Example 1512, 2-[5-Bromo-2-(2-methoxy-5-methyl-6-oxo-5,6,8,9-tetrahydro-7-oxa-5-aza-benzocyclohepten-3-ylamino)-pyrimidin-4-ylamino]-N-methyl-benzamide]", "values": [
      {"measurement": "IC50", "setting": "[1]; [7]", "value": "< 100", "unit": "nM"},
      {"measurement": "IC50", "setting": "[2]; [8]", "value": "1000 to 10000", "unit": "nM"}
    ]},
    {"molecule": "CCN1C(=O)CCC(C)(C)c2ccc(Nc3ncc(Cl)c(Nc4c(F)cc(F)cc4C(=O)NC)n3)cc21", "note": "[Example 1615, 2-[5-Chloro-2-(1-ethyl-5,5-dimethyl-2-oxo-2,3,4,5-tetrahydro-1H-benzo[b]azepin-8-ylamino)-pyrimidin-4-ylamino]-3,5-difluoro-N-methyl-benzamide]", "values": [
      {"measurement": "IC50", "setting": "[1]; [7]", "value": "< 100", "unit": "nM"},
      {"measurement": "IC50", "setting": "[2]; [8]", "value": "< 100", "unit": "nM"}
    ]},
    {"molecule": "CNC(=O)c1cccc(C)c1Nc1nc(Nc2ccc3c(c2)CCOC(=O)N3C)ncc1Cl", "note": "[Example 1744, 2-[5-Chloro-2-(5-methyl-6-oxo-5,6,8,9-tetrahydro-7-oxa-5-aza-benzocyclohepten-2-ylamino)-pyrimidin-4-ylamino]-3,N-dimethyl-benzamide]", "values": [
      {"measurement": "IC50", "setting": "[1]; [7]", "value": "1000 to 10000", "unit": "nM"},
      {"measurement": "IC50", "setting": "[2]; [8]", "value": "< 100", "unit": "nM"}
    ]},
    {"molecule": "CNC(=O)c1sccc1Nc1nc(Nc2ccc3c(c2)CCOC(=O)N3C)ncc1Cl", "note": "[Example 1747, 3-[5-Chloro-2-(5-methyl-6-oxo-5,6,8,9-tetrahydro-7-oxa-5-aza-benzocyclohepten-2-ylamino)-pyrimidin-4-ylamino]-thiophene-2-carboxylic acid methylamide]", "values": [
      {"measurement": "IC50", "setting": "[1]; [7]", "value": "100 to 1000", "unit": "nM"},
      {"measurement": "IC50", "setting": "[2]; [8]", "value": "< 100", "unit": "nM"}
    ]},
    {"molecule": "COc1cc(N2CCOCC2)ccc1Nc1nc(Nc2ccc3c(c2)C(C)(C)CCC(=O)N3C)ncc1Cl", "note": "[Example 1573, 7-[5-Chloro-4-(2-methoxy-4-morpholin-4-yl-phenylamino)-pyrimidin-2-ylamino]-1,5,5-trimethyl-1,3,4,5-tetrahydro-benzo[b]azepin-2-one]", "values": [
      {"measurement": "IC50", "setting": "[1]; [7]", "value": "< 100", "unit": "nM"},
      {"measurement": "IC50", "setting": "[2]; [8]", "value": "1000 to 10000", "unit": "nM"}
    ]},
    {"molecule": "CCN1C(=O)[C@@H](N)CCc2c1ccc(Nc1ncc(Cl)c(N[C@H]3[C@@H](C(N)=O)[C@@H]4C=C[C@H]3C4)n1)c2OC", "note": "(single isomer, unassigned) [Example 1332]", "values": [
      {"measurement": "IC50", "setting": "[1]; [5]", "value": "< 100", "unit": "nM"},
      {"measurement": "IC50", "setting": "[2]; [6]", "value": "> 10000", "unit": "nM"}
    ]},
    {"molecule": "COc1cc2c(cc1Nc1ncc(Cl)c(Nc3ccc(N4CCOCC4)cc3OC)n1)C(C)(C)CCC(=O)N2", "note": "[Example 1672, 7-[5-Chloro-4-(2-methoxy-4-morpholin-4-yl-phenylamino)-pyrimidin-2-ylamino]-8-methoxy-5,5-dimethyl-1,3,4,5-tetrahydro-benzo[b]azepin-2-one]", "values": [
      {"measurement": "IC50", "setting": "[1]; [7]", "value": "100 to 1000", "unit": "nM"},
      {"measurement": "IC50", "setting": "[2]; [8]", "value": "> 10000", "unit": "nM"}
    ]},
    {"molecule": "COc1cc(N2CCOCC2)ccc1Nc1nc(Nc2ccc3c(c2OC)CCC(NCCO)CC3)ncc1Cl", "note": "(stereo not shown) [Example 705, 2-{2-[5-Chloro-4-(2-methoxy-4-morpholin-4-yl-phenylamino)-pyrimidin-2-ylamino]-1-methoxy-6,7,8,9-tetrahydro-5H-benzocyclohepten-7-ylamino}-ethanol]", "values": [
      {"measurement": "IC50", "setting": "[1]; [3]", "value": "< 100", "unit": "nM"},
      {"measurement": "IC50", "setting": "[2]; [4]", "value": "> 10000", "unit": "nM"}
    ]},
    {"molecule": "CNC(=O)c1ccccc1Nc1nc(Nc2cc3c(cc2OC)CCN(CC(C)(F)F)CC3)ncc1Cl", "note": "[Example 786, 2-{5-Chloro-2-[3-(2,2-difluoro-propyl)-8-methoxy-2,3,4,5-tetrahydro-1H-benzo[d]azepin-7-ylamino]-pyrimidin-4-ylamino}-N-methyl-benzamide]", "values": [
      {"measurement": "IC50", "setting": "[1]; [3]", "value": "< 100", "unit": "nM"},
      {"measurement": "IC50", "setting": "[2]; [4]", "value": "> 10000", "unit": "nM"}
    ]},
    {"molecule": "COc1cc2c(cc1Nc1ncc(Cl)c(Nc3ccccc3S(=O)(=O)N(C)C)n1)CCN(CCCN1CCOCC1)C(=O)C2", "note": "[Example 1183, 2-{5-Chloro-2-[8-methoxy-3-(3-morpholin-4-yl-propyl)-2-oxo-2,3,4,5-tetrahydro-1H-benzo[d]azepin-7-ylamino]-pyrimidin-4-ylamino}-N,N-dimethyl-benzenesulfonamide]", "values": [
      {"measurement": "IC50", "setting": "[1]; [5]", "value": "< 100", "unit": "nM"},
      {"measurement": "IC50", "setting": "[2]; [6]", "value": "> 10000", "unit": "nM"}
    ]},
    {"molecule": "N-{(1R,2R)-2-[2-(12-sec-Butyl-12-aza-tricyclo[7.2.1.0*2,7*]dodeca-2(7),3,5-trien-4-ylamino)-5-chloro-pyrimidin-4-ylamino]-cyclohexyl}-methanesulfonamide [Example 85]", "values": [
      {"measurement": "IC50", "setting": "[1]; [9]", "value": "< 100", "unit": "nM"},
      {"measurement": "IC50", "setting": "[2]; [10]", "value": "100 to 1000", "unit": "nM"}
    ]},
    {"molecule": "C#CCNC(=O)c1cccc(F)c1Nc1nc(Nc2ccc3c(c2)N(CC)C(=O)C(NC(=O)COC)CC3)ncc1Cl", "note": "(stereo not shown) [Example 1499, 2-{5-Chloro-2-[1-ethyl-3-(2-methoxy-acetylamino)-2-oxo-2,3,4,5-tetrahydro-1H-benzo[b]azepin-8-ylamino]-pyrimidin-4-ylamino}-3-fluoro-N-prop-2-ynyl-benzamide]", "values": [
      {"measurement": "IC50", "setting": "[1]; [7]", "value": "100 to 1000", "unit": "nM"},
      {"measurement": "IC50", "setting": "[2]; [8]", "value": "< 100", "unit": "nM"}
    ]},
    {"molecule": "COc1c(Nc2ncc(Cl)c(Nc3ccccc3S(=O)(=O)C(C)C)n2)ccc2c1CCC(N1CCOCC1)CC2", "note": "(stereo not shown) [Example 883, 5-Chloro-N*2*-(1-methoxy-7-morpholin-4-yl-6,7,8,9-tetrahydro-5H-benzocyclohepten-2-yl)-N*4*-[2-(propane-2-sulfonyl)-phenyl]-pyrimidine-2,4-diamine]", "values": [
      {"measurement": "IC50", "setting": "[1]; [3]", "value": "< 100", "unit": "nM"},
      {"measurement": "IC50", "setting": "[2]; [4]", "value": "1000 to 10000", "unit": "nM"}
    ]},
    {"molecule": "CC1(C)CCC(=O)Nc2ccc(Nc3ncc(Cl)c(Nc4ccc(N5CCOCC5)cc4-n4cccn4)n3)cc21", "note": "[Example 627, 7-[5-Chloro-4-(4-morpholin-4-yl-2-pyrazol-1-yl-phenylamino)-pyrimidin-2-ylamino]-5,5-dimethyl-1,3,4,5-tetrahydro-benzo[b]azepin-2-one]", "values": [
      {"measurement": "IC50", "setting": "[1]; [3]", "value": "< 100", "unit": "nM"},
      {"measurement": "IC50", "setting": "[2]; [4]", "value": "1000 to 10000", "unit": "nM"}
    ]},
    {"molecule": "CCN1C(=O)CCCc2cc(Nc3ncc(Cl)c(Nc4c(F)cccc4C(=O)NC)n3)c(OC)cc21", "note": "[Example 138, 2-[5-Chloro-2-(1-ethyl-8-methoxy-2-oxo-2,3,4,5-tetrahydro-1H-benzo[b]azepin-7-ylamino)-pyrimidin-4-ylamino]-3-fluoro-N-methyl-benzamide]", "values": [
      {"measurement": "IC50", "setting": "[1]; [9]", "value": "< 100", "unit": "nM"},
      {"measurement": "IC50", "setting": "[2]; [10]", "value": "1000 to 10000", "unit": "nM"}
    ]},
    {"molecule": "CNC(=O)c1ccccc1Nc1nc(Nc2ccc3c(c2)CN(CCOC)CCN3C)ncc1Cl", "note": "[Example 432, 2-{5-Chloro-2-[4-(2-methoxy-ethyl)-1-methyl-2,3,4,5-tetrahydro-1H-benzo[e][1,4]diazepin-7-ylamino]-pyrimidin-4-ylamino}-N-methyl-benzamide]", "values": [
      {"measurement": "IC50", "setting": "[1]; [9]", "value": "< 100", "unit": "nM"},
      {"measurement": "IC50", "setting": "[2]; [10]", "value": "< 100", "unit": "nM"}
    ]},
    {"molecule": "CNC(=O)c1ccccc1Nc1nc(Nc2ccc3c(c2)CCC(=O)CC3)ncc1Cl", "note": "[Example 172, 2-[5-Chloro-2-(7-oxo-6,7,8,9-tetrahydro-5H-benzocyclo-hepten-2-ylamino)-pyrimidin-4-ylamino]-N-methyl-benzamide]", "values": [
      {"measurement": "IC50", "setting": "[1]; [9]", "value": "< 100", "unit": "nM"},
      {"measurement": "IC50", "setting": "[2]; [10]", "value": "< 100", "unit": "nM"}
    ]}
  ]
}
